# Measured values taken from the CheMixHub viscosity set.
# Values joined by “and” are separate entries in the source; they are usually repeats but may differ in a detail not shown here. Identical values can stand only once. ± gives the uncertainty stated by the source.
# Test: xn = mol fraction of the nth substance listed
compound,measurement,setting,value
NCCCC(=O)O + O,viscosity,"298.15 K, 100 kPa, x1 = 0.0008999",0.905 ± 0.019 mPa·s
same,viscosity,"298.15 K, 100 kPa, x1 = 0.002695",0.935 ± 0.02 mPa·s
same,viscosity,"298.15 K, 100 kPa, x1 = 0.004484",0.963 ± 0.02 mPa·s
same,viscosity,"298.15 K, 100 kPa, x1 = 0.006266",0.991 ± 0.021 mPa·s
same,viscosity,"298.15 K, 100 kPa, x1 = 0.008927",1.03 ± 0.022 mPa·s
same,viscosity,"308.15 K, 100 kPa, x1 = 0.0004",0.723 ± 0.015 mPa·s
same,viscosity,"308.15 K, 100 kPa, x1 = 0.0007",0.728 ± 0.015 mPa·s
same,viscosity,"308.15 K, 100 kPa, x1 = 0.0008999",0.732 ± 0.015 mPa·s
same,viscosity,"308.15 K, 100 kPa, x1 = 0.001",0.731 ± 0.015 mPa·s and 0.735 ± 0.015 mPa·s
same,viscosity,"308.15 K, 100 kPa, x1 = 0.0018",0.742 ± 0.016 mPa·s
same,viscosity,"308.15 K, 100 kPa, x1 = 0.002695",0.76 ± 0.016 mPa·s
same,viscosity,"308.15 K, 100 kPa, x1 = 0.006266",0.814 ± 0.017 mPa·s
same,viscosity,"308.15 K, 100 kPa, x1 = 0.008927",0.852 ± 0.018 mPa·s
same,viscosity,"313.15 K, 100 kPa, x1 = 0.0004",0.655 ± 0.014 mPa·s
same,viscosity,"313.15 K, 100 kPa, x1 = 0.0007",0.66 ± 0.014 mPa·s
same,viscosity,"313.15 K, 100 kPa, x1 = 0.001",0.662 ± 0.014 mPa·s and 0.666 ± 0.014 mPa·s
same,viscosity,"313.15 K, 100 kPa, x1 = 0.0018",0.672 ± 0.014 mPa·s
same,viscosity,"318.15 K, 100 kPa, x1 = 0.0004",0.599 ± 0.013 mPa·s
same,viscosity,"318.15 K, 100 kPa, x1 = 0.0007",0.603 ± 0.013 mPa·s
same,viscosity,"318.15 K, 100 kPa, x1 = 0.0008999",0.605 ± 0.013 mPa·s
same,viscosity,"318.15 K, 100 kPa, x1 = 0.001",0.605 ± 0.013 mPa·s and 0.609 ± 0.013 mPa·s
same,viscosity,"318.15 K, 100 kPa, x1 = 0.0018",0.614 ± 0.013 mPa·s
same,viscosity,"318.15 K, 100 kPa, x1 = 0.002695",0.623 ± 0.013 mPa·s
same,viscosity,"318.15 K, 100 kPa, x1 = 0.004484",0.64 ± 0.013 mPa·s
same,viscosity,"318.15 K, 100 kPa, x1 = 0.006266",0.658 ± 0.014 mPa·s
same,viscosity,"318.15 K, 100 kPa, x1 = 0.008927",0.684 ± 0.014 mPa·s
CC(=O)OCc1ccccc1 + Cc1ccc(C)cc1,viscosity,"303.15 K, 101 kPa, x1 = 0.0917",0.602 ± 0.008 mPa·s
same,viscosity,"303.15 K, 101 kPa, x1 = 0.1773",0.645 ± 0.008 mPa·s
same,viscosity,"303.15 K, 101 kPa, x1 = 0.2764",0.716 ± 0.009 mPa·s
same,viscosity,"303.15 K, 101 kPa, x1 = 0.3701",0.792 ± 0.01 mPa·s
same,viscosity,"303.15 K, 101 kPa, x1 = 0.4679",0.891 ± 0.011 mPa·s
same,viscosity,"303.15 K, 101 kPa, x1 = 0.5689",1.005 ± 0.013 mPa·s
same,viscosity,"303.15 K, 101 kPa, x1 = 0.6717",1.134 ± 0.014 mPa·s
same,viscosity,"303.15 K, 101 kPa, x1 = 0.7678",1.267 ± 0.016 mPa·s
same,viscosity,"303.15 K, 101 kPa, x1 = 0.8698",1.421 ± 0.018 mPa·s
same,viscosity,"303.15 K, 101 kPa, x1 = 0.9473",1.549 ± 0.019 mPa·s
same,viscosity,"313.15 K, 101 kPa, x1 = 0.0917",0.537 ± 0.007 mPa·s
same,viscosity,"313.15 K, 101 kPa, x1 = 0.1773",0.571 ± 0.007 mPa·s
same,viscosity,"313.15 K, 101 kPa, x1 = 0.2764",0.624 ± 0.008 mPa·s
same,viscosity,"313.15 K, 101 kPa, x1 = 0.3701",0.681 ± 0.009 mPa·s
same,viscosity,"313.15 K, 101 kPa, x1 = 0.4679",0.76 ± 0.01 mPa·s
same,viscosity,"313.15 K, 101 kPa, x1 = 0.5689",0.85 ± 0.011 mPa·s
same,viscosity,"313.15 K, 101 kPa, x1 = 0.6717",0.937 ± 0.012 mPa·s
same,viscosity,"313.15 K, 101 kPa, x1 = 0.7678",1.036 ± 0.013 mPa·s
same,viscosity,"313.15 K, 101 kPa, x1 = 0.8698",1.179 ± 0.015 mPa·s
same,viscosity,"313.15 K, 101 kPa, x1 = 0.9473",1.273 ± 0.016 mPa·s
OCC(F)(F)C(F)(F)F + O,viscosity,"298.15 K, 100 kPa, x1 = 0.5504",2.607 ± 0.061 mPa·s
same,viscosity,"298.15 K, 100 kPa, x1 = 0.6564",2.626 ± 0.059 mPa·s
same,viscosity,"298.15 K, 100 kPa, x1 = 0.7892",2.774 ± 0.059 mPa·s
same,viscosity,"298.15 K, 100 kPa, x1 = 0.8991",3.069 ± 0.064 mPa·s
same,viscosity,"323.15 K, 100 kPa, x1 = 0.5504",1.263 ± 0.03 mPa·s
same,viscosity,"323.15 K, 100 kPa, x1 = 0.6564",1.278 ± 0.029 mPa·s
same,viscosity,"323.15 K, 100 kPa, x1 = 0.7892",1.318 ± 0.028 mPa·s
same,viscosity,"323.15 K, 100 kPa, x1 = 0.8991",1.401 ± 0.03 mPa·s
ClC(Cl)Cl + CC1COC(=O)O1,viscosity,"303.15 K, 101.3 kPa, x2 = 0.0961",0.5649 ± 0.01 mPa·s
same,viscosity,"303.15 K, 101.3 kPa, x2 = 0.1929",0.6358 ± 0.011 mPa·s
same,viscosity,"303.15 K, 101.3 kPa, x2 = 0.2906",0.7195 ± 0.013 mPa·s
same,viscosity,"303.15 K, 101.3 kPa, x2 = 0.3894",0.8171 ± 0.014 mPa·s
same,viscosity,"303.15 K, 101.3 kPa, x2 = 0.4887",0.9421 ± 0.016 mPa·s
same,viscosity,"303.15 K, 101.3 kPa, x2 = 0.5894",1.098 ± 0.018 mPa·s
same,viscosity,"303.15 K, 101.3 kPa, x2 = 0.6906",1.287 ± 0.021 mPa·s
same,viscosity,"303.15 K, 101.3 kPa, x2 = 0.7925",1.52 ± 0.025 mPa·s
same,viscosity,"303.15 K, 101.3 kPa, x2 = 0.8962",1.808 ± 0.029 mPa·s
ClC(Cl)Cl + Cc1ccccc1,viscosity,"298.15 K, 101 kPa, x1 = 0.1361",0.5653 ± 0.0071 mPa·s
same,viscosity,"298.15 K, 101 kPa, x1 = 0.2872",0.5753 ± 0.0073 mPa·s
same,viscosity,"298.15 K, 101 kPa, x1 = 0.4067",0.5833 ± 0.0073 mPa·s
same,viscosity,"298.15 K, 101 kPa, x1 = 0.554",0.5861 ± 0.0074 mPa·s
same,viscosity,"298.15 K, 101 kPa, x1 = 0.6211",0.584 ± 0.0074 mPa·s
same,viscosity,"298.15 K, 101 kPa, x1 = 0.6656",0.58 ± 0.0073 mPa·s
same,viscosity,"298.15 K, 101 kPa, x1 = 0.8806",0.5593 ± 0.0071 mPa·s
same,viscosity,"298.15 K, 101.33 kPa, x1 = 0.0912",0.5573 ± 0.0056 mPa·s
same,viscosity,"298.15 K, 101.33 kPa, x1 = 0.1727",0.5608 ± 0.0057 mPa·s
same,viscosity,"298.15 K, 101.33 kPa, x1 = 0.2562",0.5636 ± 0.0057 mPa·s
same,viscosity,"298.15 K, 101.33 kPa, x1 = 0.3481",0.5661 ± 0.0057 mPa·s
same,viscosity,"298.15 K, 101.33 kPa, x1 = 0.5471",0.5687 ± 0.0057 mPa·s
same,viscosity,"298.15 K, 101.33 kPa, x1 = 0.6862",0.5638 ± 0.0057 mPa·s
same,viscosity,"298.15 K, 101.33 kPa, x1 = 0.8428",0.5531 ± 0.0056 mPa·s
same,viscosity,"298.15 K, 101.33 kPa, x1 = 0.9237",0.545 ± 0.0055 mPa·s
CC[n+]1ccn(C)c1.COS(=O)(=O)[O-] + CN1CCCC1=O,viscosity,"298.15 K, 101 kPa, x1 = 0.243",9.19 ± 1.4 mPa·s
same,viscosity,"298.15 K, 101 kPa, x1 = 0.9139",68.9 ± 12 mPa·s
same,viscosity,"298.15 K, 101 kPa, x1 = 0.9581",76.81 ± 18 mPa·s
same,viscosity,"303.15 K, 101 kPa, x1 = 0.243",7.33 ± 1.1 mPa·s
same,viscosity,"303.15 K, 101 kPa, x1 = 0.282",8.88 ± 1.3 mPa·s
same,viscosity,"308.15 K, 101 kPa, x1 = 0.282",6.76 ± 1 mPa·s
same,viscosity,"308.15 K, 101 kPa, x1 = 0.3482",9.45 ± 1.4 mPa·s
same,viscosity,"313.15 K, 101 kPa, x1 = 0.3482",8.19 ± 1.2 mPa·s
